Experimental data reported in patent publication US10294202B2, “Pyrrolidinones as herbicides” (FMC Corporation, priority 2013, dated 2019).

What was measured:
[1] = system: barnyardgrass; assay: Test A pre-/postemergence herbicide test; assay type: in vivo, Echinochloa crus-galli
Outline: (§1)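 Formulated compound (non-phytotoxic solvent, surfactant) sprayed pre- onto soil of seeded loam/sand pots or post- onto seedlings at 1–2 leaves; ~10 d greenhouse; 0–100 visual control rating versus untreated.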

[2] = system: kochia; assay: Test A pre-/postemergence herbicide test; assay type: in vivo, Kochia scoparia; conditions: for Plant response rating, Kochia: 0 to 100 scale
Source text: (§2) Seeds of plant species selected from bamyardgrass (Echinochloa crus-galli), kochia (Kochia scoparia), ragweed (common ragweed, Ambrosia elatior), ryegrass, Italian (Italian ryegrass, Lolium multiflorum), crabgrass, large (large crabgrass Digitaria sanguinalis), giant foxtail (Setaria faberii), morningglory (Ipomoea spp.), pigweed (Amaranthus retroflexus), velvetleaf (Abutilon theophrasti), wheat (Triticum aestivum), and corn (Zea mays) were planted into a blend of loam soil and sand and treated preemergence with a directed soil spray using test chemicals formulated in a non-phytotoxic solvent mixture which included a surfactant. At the same time, plants selected from these crop and weed species and also blackgrass (Alopecurus myosuroides), and galium (catchweed bedstraw, Galium aparine) were planted in pots containing the same blend of loam soil and sand and treated with postemergence applications of test chemicals formulated in the same manner. Plants ranged in height from 2 to 10 cm and were in the one- to two-leaf stage for the postemergence treatment. Treated plants and untreated controls were maintained in a greenhouse for approximately 10 days, after which time all treated plants were compared to untreated controls and visually evaluated for injury. Plant response ratings, summarized in Table A, are based on a 0 to 100 scale where 0 is no effect and 100 is complete control. A dash (-) response means no test result.

[3] = system: ragweed; assay: Test A pre-/postemergence herbicide test; assay type: in vivo, Ambrosia elatior; conditions: for Plant response rating, Ragweed: 0 to 100 scale
Source text: as §2

[4] = system: ryegrass, Italian; assay: Test A pre-/postemergence herbicide test; assay type: in vivo, Lolium multiflorum; conditions: for Plant response rating, Ryegrass, Italian: 0 to 100 scale
Source text: as §2

[5] = system: giant foxtail; assay: Test A pre-/postemergence herbicide test; assay type: in vivo, Setaria faberii; conditions: for Plant response rating, Foxtail, Giant: 0 to 100 scale
Outline: as §1

[6] = system: pigweed; assay: Test A pre-/postemergence herbicide test; assay type: in vivo, Amaranthus retroflexus; conditions: for Plant response rating, Pigweed: 0 to 100 scale
Outline: as §1

[7] = system: wheat; assay: Test A pre-/postemergence herbicide test; assay type: in vivo, Triticum aestivum; conditions: Postemergence; for Plant response rating, Wheat: 125 g ai/ha, 0 to 100 scale, 0 is no effect, 100 is complete control; for Wheat plant response rating (0 to 100 scale, 0 is no effect, 100 is complete control): 500 g ai/ha
Outline: as §1

[8] = system: corn; assay: Test A pre-/postemergence herbicide test; assay type: in vivo, Zea mays; conditions: Postemergence; for Plant response rating, Corn: 125 g ai/ha, 0 to 100 scale, 0 is no effect, 100 is complete control; for Corn plant response rating (0 to 100 scale, 0 is no effect, 100 is complete control): 500 g ai/ha
Outline: as §1

[9] = system: blackgrass; assay: Test A postemergence herbicide test; assay type: in vivo, Alopecurus myosuroides; conditions: for Plant response rating, Blackgrass: 125 g ai/ha, 0 to 100 scale, 0 is no effect, 100 is complete control; for Blackgrass plant response rating (0 to 100 scale, 0 is no effect, 100 is complete control): 500 g ai/ha
Source text: (§3) At the same time, plants selected from these crop and weed species and also blackgrass (Alopecurus myosuroides), and galium (catchweed bedstraw, Galium aparine) were planted in pots containing the same blend of loam soil and sand and treated with postemergence applications of test chemicals formulated in the same manner. Plants ranged in height from 2 to 10 cm and were in the one- to two-leaf stage for the postemergence treatment. Treated plants and untreated controls were maintained in a greenhouse for approximately 10 days, after which time all treated plants were compared to untreated controls and visually evaluated for injury. Plant response ratings, summarized in Table A, are based on a 0 to 100 scale where 0 is no effect and 100 is complete control. A dash (-) response means no test result.

[10] = system: galium; assay: Test A postemergence herbicide test; assay type: in vivo, Galium aparine; conditions: for Plant response rating, Galium: 125 g ai/ha, 0 to 100 scale, 0 is no effect, 100 is complete control; for Galium plant response rating (0 to 100 scale, 0 is no effect, 100 is complete control): 500 g ai/ha
Source text: as §3

[11] = 125 g ai/ha, visual rating, 0 to 100 scale, 0 no effect, 100 complete control, approximately 10 days, preemergence
[12] = Postemergence, 125 g ai/ha, 0 to 100 scale, 0 is no effect, 100 is complete control
[13] = preemergence, 500 g ai/ha, 0 to 100 scale (0 no effect, 100 complete control)
[14] = 125 g ai/ha, visual rating, 0 no effect, 100 complete control, approximately 10 days, preemergence
[15] = Postemergence, 125 g ai/ha, 0 is no effect, 100 is complete control
[16] = preemergence, 500 g ai/ha, 0 is no effect and 100 is complete control

SMILES | Plant response rating, Barnyardgrass [1, 11] | Plant response rating, Barnyardgrass [1, 12] | Barnyardgrass plant response rating (0 to 100 scale, 0 is no effect, 100 is complete control) ([1]; Postemergence, 500 g ai/ha) | Plant response rating, Kochia [2, 14] | Plant response rating, Kochia [2, 15] | Kochia plant response rating (0 to 100 scale, 0 is no effect, 100 is complete control) ([2]; Postemergence, 500 g ai/ha) | Plant response rating, Kochia [2, 16] | Plant response rating, Ragweed [3, 14] | Plant response rating, Ragweed [3, 15] | Ragweed plant response rating (0 to 100 scale, 0 is no effect, 100 is complete control) ([3]; Postemergence, 500 g ai/ha) | Plant response rating, Ragweed [3, 16] | Plant response rating, Ryegrass, Italian [4, 14] | Plant response rating, Ryegrass, Italian [4, 15] | Ryegrass, Italian plant response rating (0 to 100 scale, 0 is no effect, 100 is complete control) ([4]; Postemergence, 500 g ai/ha) | Plant response rating, Ryegrass, Italian [4, 16] | Plant response rating, Foxtail, Giant [5, 14] | Plant response rating, Foxtail, Giant [5, 15] | Foxtail, Giant plant response rating (0 to 100 scale, 0 is no effect, 100 is complete control) ([5]; Postemergence, 500 g ai/ha) | Plant response rating, Pigweed [6, 14] | Plant response rating, Pigweed [6, 15] | further results
O=C1NCC(c2cc(F)cc(F)c2)C1C(=O)Nc1cccc(F)c1F (racemic) [Compound 157] | 90 | 70 | 80 | 50 | 20 | 30 | 70 | 30 | 20 | 40 | 50 | 30 | 30 | 30 | 60 | 90 | 80 | 80 | 0 | 0 | Plant response rating, Barnyardgrass [1, 13]: 90; Plant response rating, Foxtail, Giant ([5]; preemergence, 500 g ai/ha): 90; Pigweed plant response rating (0 to 100 scale, 0 is no effect, 100 is complete control) ([6]; Postemergence, 500 g ai/ha): 30; Plant response rating, Pigweed [6, 16]: 50; Plant response rating, Wheat [7]: 40; Wheat plant response rating (0 to 100 scale, 0 is no effect, 100 is complete control) [7]: 70; Plant response rating, Corn [8]: 50; Corn plant response rating (0 to 100 scale, 0 is no effect, 100 is complete control) [8]: 80; Plant response rating, Blackgrass [9]: 30; Blackgrass plant response rating (0 to 100 scale, 0 is no effect, 100 is complete control) [9]: 30; Plant response rating, Galium [10]: 40; Galium plant response rating (0 to 100 scale, 0 is no effect, 100 is complete control) [10]: 40
O=C1NCC(c2ccc(OC(F)(F)C(F)F)cc2)C1C(=O)Nc1cccc(F)c1F (racemic) [Compound 172] | 0 | 0 | 20 | 30 | 0 | 0 | 30 | 0 | 0 | 0 | 0 | 0 | 0 | 0 | 0 | 20 | 0 | 30 | 0 | 0 | Plant response rating, Barnyardgrass [1, 13]: 20; Plant response rating, Foxtail, Giant ([5]; preemergence, 500 g ai/ha): 30; Pigweed plant response rating (0 to 100 scale, 0 is no effect, 100 is complete control) ([6]; Postemergence, 500 g ai/ha): 0; Plant response rating, Pigweed [6, 16]: 0; Plant response rating, Wheat [7]: 0; Wheat plant response rating (0 to 100 scale, 0 is no effect, 100 is complete control) [7]: 0; Plant response rating, Corn [8]: 0; Corn plant response rating (0 to 100 scale, 0 is no effect, 100 is complete control) [8]: 0; Plant response rating, Blackgrass [9]: 0; Blackgrass plant response rating (0 to 100 scale, 0 is no effect, 100 is complete control) [9]: 0; Plant response rating, Galium [10]: 0; Galium plant response rating (0 to 100 scale, 0 is no effect, 100 is complete control) [10]: 0
O=C1NCC(c2ccc(OC(F)(F)C(F)F)cc2)C1C(=O)Nc1ccc(F)c(F)c1F (racemic) [Compound 174] | 0 | 0 | 20 | 0 | 0 | 0 | 20 | 0 | 0 | 0 | 0 | 0 | 0 | 0 | 0 | 30 | 20 | 30 | 0 | 0 | Plant response rating, Barnyardgrass ([1]; preemergence, 500 g ai/ha, 0 to 100 scale, 0 is no effect and 100 is complete control): 20; Plant response rating, Foxtail, Giant [5, 16]: 50; Pigweed plant response rating (0 to 100 scale, 0 is no effect, 100 is complete control) ([6]; Postemergence, 500 g ai/ha): 0; Plant response rating, Pigweed [6, 16]: 0; Plant response rating, Wheat [7]: 0; Wheat plant response rating (0 to 100 scale, 0 is no effect, 100 is complete control) [7]: 0; Plant response rating, Corn [8]: 0; Corn plant response rating (0 to 100 scale, 0 is no effect, 100 is complete control) [8]: 0; Plant response rating, Blackgrass [9]: 0; Blackgrass plant response rating (0 to 100 scale, 0 is no effect, 100 is complete control) [9]: 0; Plant response rating, Galium [10]: 0; Galium plant response rating (0 to 100 scale, 0 is no effect, 100 is complete control) [10]: 0
